Results from PubChem BioAssay (NCI).
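Where inhibition never reached the appropriate level, the endpoint shown equals the highest concentration tested. Otherwise, values were interpolated linearly from a five-concentration, 48-hour dose response in 96-well plates. The concentration for 50% growth inhibition is given as GI50. TGI: concentration producing complete growth inhibition.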

Tests used:
Assay in all cases: NCI anticancer screen, dose series, 48 h
BT-549 breast = test system: BT-549 breast
HS 578T breast = test system: HS 578T breast
COLO 205 colon = test system: COLO 205 colon
T-47D breast = test system: T-47D breast
HT29 colon = test system: HT29 colon
HCT-116 colon = test system: HCT-116 colon
CAKI-1 renal = test system: CAKI-1 renal
ACHN renal = test system: ACHN renal
786-0 renal = test system: 786-0 renal
TK-10 renal = test system: TK-10 renal
OVCAR-4 ovarian = test system: OVCAR-4 ovarian
MCF7 breast = test system: MCF7 breast
HCT-15 colon = test system: HCT-15 colon
NCI-H226 lung = test system: NCI-H226 lung
SN12C renal = test system: SN12C renal
M14 melanoma = test system: M14 melanoma
DU-145 prostate = test system: DU-145 prostate
SNB-19 CNS = test system: SNB-19 CNS
OVCAR-3 ovarian = test system: OVCAR-3 ovarian
SK-MEL-28 melanoma = test system: SK-MEL-28 melanoma
HL-60(TB) leukemia = test system: HL-60(TB) leukemia
EKVX NSCLC = test system: EKVX NSCLC
K-562 leukemia = test system: K-562 leukemia
SF-295 CNS = test system: SF-295 CNS
UACC-257 melanoma = test system: UACC-257 melanoma
MOLT-4 leukemia = test system: MOLT-4 leukemia
HOP-92 NSCLC = test system: HOP-92 NSCLC
SF-539 CNS = test system: SF-539 CNS
NCI-H460 lung = test system: NCI-H460 lung

Compound `O=C(Nc1ncc(Cc2ccccc2)s1)c1sc2ccccc2c1Cl` has a GI50 (BT-549 breast) of 2.21 µM, a TGI (BT-549 breast) of 40 µM and a GI50 (HS 578T breast) of 0.537 µM. The TGI (HS 578T breast) was 29.9 µM, the GI50 (COLO 205 colon) was 2.16 µM and the TGI (COLO 205 colon) was over 100 µM. It also gave a GI50 (T-47D breast) of 0.0713 µM, a TGI (T-47D breast) of over 100 µM and a GI50 (HT29 colon) of 0.449 µM. The TGI (HT29 colon) was over 63.1 µM, the GI50 (HCT-116 colon) was 0.469 µM and the TGI (HCT-116 colon) was over 76.6 µM. The GI50 (CAKI-1 renal) was 0.574 µM, the TGI (CAKI-1 renal) was 24.5 µM and the GI50 (ACHN renal) was 0.496 µM. It also gave a TGI (ACHN renal) of 48.6 µM, a GI50 (786-0 renal) of 1.32 µM and a TGI (786-0 renal) of 40.1 µM. For the same compound, the GI50 (TK-10 renal) was 4.01 µM, the TGI (TK-10 renal) was 69.1 µM and the GI50 (OVCAR-4 ovarian) was 3.32 µM. It also gave a TGI (OVCAR-4 ovarian) of 79.4 µM, a GI50 (MCF7 breast) of 0.037 µM and a TGI (MCF7 breast) of over 100 µM. The GI50 (HCT-15 colon) was 0.0449 µM, the TGI (HCT-15 colon) was over 100 µM and the GI50 (NCI-H226 lung) was 2.2 µM. It also gave a TGI (NCI-H226 lung) of over 46.6 µM, a GI50 (SN12C renal) of 1.24 µM and a TGI (SN12C renal) of over 100 µM. It also gave a GI50 (M14 melanoma) of 0.448 µM, a TGI (M14 melanoma) of 32.2 µM and a GI50 (DU-145 prostate) of 2.8 µM. It also gave a TGI (DU-145 prostate) of 36.5 µM, a GI50 (SNB-19 CNS) of 0.777 µM and a TGI (SNB-19 CNS) of 59.9 µM. The GI50 (OVCAR-3 ovarian) was 0.523 µM, the TGI (OVCAR-3 ovarian) was 14.4 µM and the GI50 (SK-MEL-28 melanoma) was 2.18 µM. The TGI (SK-MEL-28 melanoma) was over 80.4 µM, the GI50 (HL-60(TB) leukemia) was 0.375 µM and the TGI (HL-60(TB) leukemia) was over 100 µM. The GI50 (EKVX NSCLC) was 0.969 µM, the TGI (EKVX NSCLC) was over 100 µM and the GI50 (K-562 leukemia) was 0.434 µM. It also gave a TGI (K-562 leukemia) of over 100 µM, a GI50 (SF-295 CNS) of 0.753 µM and a TGI (SF-295 CNS) of 19.6 µM. It also gave a GI50 (UACC-257 melanoma) of 1.93 µM, a TGI (UACC-257 melanoma) of over 66.5 µM and a GI50 (MOLT-4 leukemia) of 0.68 µM. It also gave a TGI (MOLT-4 leukemia) of over 100 µM, a GI50 (HOP-92 NSCLC) of 1.23 µM and a TGI (HOP-92 NSCLC) of 45.3 µM. The GI50 (SF-539 CNS) was 0.497 µM, the TGI (SF-539 CNS) was 5.23 µM and the GI50 (NCI-H460 lung) was 0.253 µM. The TGI (NCI-H460 lung) was 18.4 µM.
